The values that follow come from patent US9855248B2, “Polymorph of itraconazole with improved pharmaceutical properties” (The Chinese University of Hong Kong, priority 2016, dated 2018).

Data set [1] is classed as physicochemical. On the procedure: Solubilities of different polymorphs were determined by adding excess drug to 10 ml of 50% v/v aqueous ethanol in glass vials, followed by equilibration with occasional shaking at different temperatures (4° C., 10° C., 20° C., 25° C., 34° C., 40° C.) in a temperature-controlled incubator (Lovibond TC 135S, Tintometer GmbH, Dortmund, Germany) for 3 days (i.e., until equilibrium was reached). The solution was then filtered and the drug content was analyzed by UPLC (Agilent 1200 Infinity LC systems) using a UHPLC ZORBAX Eclipse Plus C18 column (2.1 mm×50 mm; 1.8 m). The mobile phase consisted of acetonitrile and 0.1% formic acid (60:40 v/v) eluted at 1 ml/min. Quantification was based on the peak area measurement by UV absorption at λ=260 nm. After the study, the residual solid in each glass vial was analyzed by DSC and XRPD to check for possible polymorphic transitions during the study. Solubility data were expressed in mole fraction as follows:
[formula] where n1 is the number of moles of solvent, and n2 is the number of moles of solute.
In addition to the enthalpy of fusion, equilibrium solubility and the related enthalpy of solution in a given solvent system can offer useful information on the bonding strength within the crystal lattice of a particular polymorph. […] According to the van't Hoff equation, the plot should be linear if the enthalpy of solution term in the equation is truly temperature-independent. […] The extrapolation of two linear plots yielded a transition temperature, Tr, of […] at the intersection point for the two polymorphs. The enthalpy, ΔHII→I, and entropy, ΔSII→I, of polymorphic transition from Form II to Form I were estimated to be −4470.8 J/mol and −5.7 J/mol·K from the slope of the log solubility ratio plot in FIG. 6B and from the relation, ΔSII→I=ΔHII→I/Tr (i.e., when ΔGII→I=0), respectively. The free energies of polymorphic transition, ΔGII→I, from Form II to Form I at 25° C. and 37° C., as defined by the equation, ΔGII→I=ΔHII→I−TΔSII→I, were calculated to be −2771 J/mol and −2703 J/mol, respectively. The solubility of Form II was about 2-3 fold higher than that of Form I in the temperature range studied.

Data set [2] can be described thus: Powder dissolution study in 50% v/v aqueous ethanol. Format: physicochemical. The following applies: 25° C.; for solid form of undissolved solid at end of dissolution study (DSC and XRPD): 3-day dissolution study; for initial dissolution rate (in words): initial time period. On the procedure: As an alternative means to compare the solubilities of the three ITZ polymorphs, the dissolution-time profiles of these crystal forms were determined in the same solvent system. According to the Noyes Whitney equation, the dissolution rate per unit surface area of a drug solid in contact with the dissolution medium is directly proportional to its solubility under sink conditions at a constant temperature. Thus the amount of drug dissolved initially over a defined time period can provide an indirect measure of the drug solubility. […] The concentrations of Form I and Form II in dissolution media increased gradually with time and plateaued off after ˜10 h. The maximum drug concentration attained was 2-3 fold higher for Form II than for Form I, consistent with the equilibrium solubility data.
All powder samples for dissolution testing were first sieved through an 80 mesh-screen (180 μm), and only particles with sizes smaller than 180 m were used. An accurately weighed amount (20±0.2 mg) of each ITZ polymorph or ITZ amorphous powder (made by rapid melt quenching) was dispersed in 25 ml 50% v/v aqueous ethanol with continuous stirring at 100 rpm in a round bottom flask, equilibrated inside a temperature-controlled incubator (Lovibond TC 135S, Tintometer GmbH, Dortmund, Germany) at 25° C. At appropriate time intervals, a 400 μl aliquot of each solution was withdrawn, filtered through 0.22 m membrane filters, and diluted with a suitable amount of 50% v/v aqueous ethanol prior to UPLC analysis. Each sample withdrawn was replaced by the same volume of fresh dissolution medium. The method of drug content detection was the same as described in the preceding section. At the end of the dissolution study, the undissolved solid left in the medium was checked by DSC or XRPD for possible polymorphic transition.

Data set [3] can be described thus: Solid-state physical stability of Form III (annealing, ambient handling, grinding; XRPD). Format: physicochemical. The protocol:
X-ray powder diffraction (XRPD) data were collected using a powder X-ray diffractometer (Philips, Xpert PRO, The Netherlands) equipped with a Cu radiation source operating at 40 kV and […]. Sample was uniformly packed into a custom-made aluminum holder with a 2 mm depth and scanned from 20 of 3° to 400 at a rate of 4°/min with a step size of 0.017°.
FIGS. 2A, 2B and 2C show the XRPD patterns for the three different growth zones, respectively. […] The third zone, termed Form III, was characterized by signature peaks at approximately 11.9°, 16.7°, 17.4°, 18.7°, 19.1°, 20.0°, and 21.1°, indicative of a new crystal form, which has not been reported previously. […] The morphologies of Form I and II were similar and almost indistinguishable. Form III only existed in the bulk of recrystallized ITZ (FIG. 1C). All of the three forms grew as spherulites at temperatures below 110° C. (FIG. 1D). At temperatures above 110° C., Forms I and II grew as separate faceted crystals (FIGS. 1E and 1F), whereas Form III transformed to Form II. The latter was further substantiated by annealing Form III at 100° C. and 120° C.
Samples of ITZ polymorphs recrystallized from melt on glass coverslips were first examined by HSM. […] (FIGS. 3B and 3C). Further heating led to melting of Form II at 158° C. (FIG. 3D), and eventually melting of Form I at around 167° C. (FIG. 3E). To gain further insight into the thermal behaviors and melting properties of the different polymorphs, DSC analyses were conducted and the respective thermograms are presented in FIG. 4A. Form I melted at 165.1° C., which is in excellent agreement with the melting point of the commercial ITZ form (Form I). The melting point of Form II (155.7° C.) is the same as that described previously. The measured molar enthalpy of fusion, ΔH^f, of Form II was 60.6±1.7 kJ/mol, which is less than that (ΔH^f=68.6±1.5 kJ/mol) of Form I. The molar entropy of fusion, ΔS^f, of Form II (141±4 J/mol·K) was also less than that of Form I (ΔS^f=156±4 J/mol·K). […] At low scanning rate, e.g., 10° C./min, a small exothermic peak appeared at ˜120° C. (which possibly reflects the transition of Form III to Form II), followed by an endotherm at ˜156° C., corresponding to the melting of Form II. At higher heating rates, e.g., 40° C./min, the melting endotherm of Form III started to emerge at 119.4° C., followed by a relatively small endotherm at a higher temperature, which can be attributed to the melting of recrystallized Form II from the Form III melt. Due to the co-existence of Form III and/or its melt, this Form II was seen to melt at a lower temperature than its phase pure counterpart (m.p. ˜156° C.). […]

The conditions of data set [4]: pH 7.4; cited from earlier work.

The structures appear in SMILES notation. Entries after “also recorded” stand apart in the source; their conditions may differ.

As to `CCC(C)n1ncn(-c2ccc(N3CCN(c4ccc(OC[C@H]5CO[C@](Cn6cncn6)(c6ccc(Cl)cc6Cl)O5)cc4)CC3)cc2)c1=O` (mixture of isomers) [Form I, itraconazole], the “molar enthalpy of solution” value in data set [1] is recorded as 55.8 (±2.8) kJ/mol. Moreover, in data set [2], the “time at which concentration in dissolution medium plateaued off” value was roughly 10 h; the “solid form of undissolved solid at end of dissolution study (DSC and XRPD)” value (“solid form of undissolved solid” below) is reported as “maintained their original crystal structures; also recorded: remained unchanged”.
With `CCC(C)n1ncn(-c2ccc(N3CCN(c4ccc(OC[C@H]5CO[C@](Cn6cncn6)(c6ccc(Cl)cc6Cl)O5)cc4)CC3)cc2)c1=O` (mixture of isomers) [Form II, itraconazole], in data set [1], the “enthalpy, ΔHII→I, of polymorphic transition from Form II to Form I” value is -1.0685 kcal/mol; the “entropy, ΔSII→I, of polymorphic transition from Form II to Form I” value was −5.7 J/mol·K; the “molar enthalpy of solution” value is given as 51.3 (±2.9) kJ/mol; the “transition temperature, Tr, of Form I and Form II” value is 497.8 °C. The “solubility relative to that of Form I” value in data set [1] (3 days) is on record as 2-3 fold. Further, in data set [2], the “maximum/peak drug concentration relative to that of Form I” value is on record as 2-3 fold; the “time at which concentration in dissolution medium plateaued off” value is roughly 10 h; the “solid form of undissolved solid” value is recorded as “maintained their original crystal structures; also recorded: remained unchanged”.
For the compound `CCC(C)n1ncn(-c2ccc(N3CCN(c4ccc(OC[C@H]5CO[C@](Cn6cncn6)(c6ccc(Cl)cc6Cl)O5)cc4)CC3)cc2)c1=O` (mixture of isomers) [Form III, itraconazole], in data set [2], the “maximum/peak drug concentration relative to that of Form I” value is “about 7 fold”; the “time of peak drug concentration” value was roughly 15 h; the “solid form of undissolved solid” value is given as “converted to Form I”; the “initial dissolution rate (in words)” value is recorded as “dissolved much more rapidly than the other two forms”. Further, the “phase stability on annealing (XRPD)” value in data set [3] (100° C. for 10 hours) was “no such phase transition”. In data set [3] (120° C. for 10 hours), the “phase stability on annealing (XRPD)” value is listed as “conversion to Form II”. Besides, the “crystal structure after grinding (XRPD)” value in data set [3] (grinding with pestle and mortar) is recorded as “remained unchanged in crystal structure”. Further, in data set [3] (scraping from glass coverslip for XRPD analysis), the “physical stability at ambient conditions” value was “stable at ambient conditions”.
Take `CCC(C)n1ncn(-c2ccc(N3CCN(c4ccc(OC[C@H]5CO[C@](Cn6cncn6)(c6ccc(Cl)cc6Cl)O5)cc4)CC3)cc2)c1=O` (mixture of isomers) [amorphous form, itraconazole]: the “solid form of undissolved solid” value in data set [2] and in data set [2] (listed as amorphous material) was “converted to Form I” in each case. In addition, the “dissolved drug concentration level after initial drop” value in data set [2] (after 50 h) was “equivalent to the equilibrium solubility of Form I”. For the same compound, the “initial dissolution rate (in words)” value in data set [2] is recorded as “increased most rapidly”.
Regarding `CCC(C)n1ncn(-c2ccc(N3CCN(c4ccc(OC[C@H]5CO[C@](Cn6cncn6)(c6ccc(Cl)cc6Cl)O5)cc4)CC3)cc2)c1=O` (relative stereo) [ITZ, (2R,4S)-rel-1-(Butan-2-yl)-4-{4-[4-(4-{[(2R,4S)-2-(2,4-dichlorophenyl)-2-(1H-1,2,4-triazol-1-ylmethyl)-1,3-dioxolan-4-yl]methoxy}phenyl)piperazin-1-yl]phenyl}-4,5-dihydro-1H-1,2,4-triazol-5-one], the water-solubility in data set [4] is 1 ng/mL.
